SMILES strings stand for the structures. Calls of active or inactive are those of the source. The calls are words filed in the database; no cut-off is given here.

The first test deals with T1, Hexose transporter 1 (Plasmodium falciparum, UniProt O97467).
T1 sequence (O97467 whole entry): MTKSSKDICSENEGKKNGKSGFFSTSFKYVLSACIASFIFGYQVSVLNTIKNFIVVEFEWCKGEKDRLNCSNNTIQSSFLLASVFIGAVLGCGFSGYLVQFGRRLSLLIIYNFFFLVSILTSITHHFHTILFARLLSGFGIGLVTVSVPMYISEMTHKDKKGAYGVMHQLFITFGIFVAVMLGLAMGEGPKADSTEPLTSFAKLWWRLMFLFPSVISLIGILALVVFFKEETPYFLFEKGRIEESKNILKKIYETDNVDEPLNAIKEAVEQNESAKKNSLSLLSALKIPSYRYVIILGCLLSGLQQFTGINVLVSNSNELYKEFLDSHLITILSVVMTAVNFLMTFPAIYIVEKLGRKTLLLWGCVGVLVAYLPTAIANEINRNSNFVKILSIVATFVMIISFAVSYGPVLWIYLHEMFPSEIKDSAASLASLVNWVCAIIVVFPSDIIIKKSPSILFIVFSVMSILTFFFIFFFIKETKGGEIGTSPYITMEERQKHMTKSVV
Kind of test: Inhibition of [3H]glucose uptake at Plasmodium falciparum HT expressed in Xenopus laevis oocytes. The format is cell-based, Oocyte.
Conditions: not given
As a reminder, the Ki is a dissociation constant, usually derived from enzyme kinetics or from competition with a known ligand. Low readings indicate tighter binding, high ones weaker binding. In the case of `C=CCCCCCCCCCOC[C@H]1OC(O)[C@H](O)[C@@H](O)[C@@H]1O` (stereo partly drawn), the Ki is 2000 µM.

In turn, `C=CCCCCCCCCCO[C@@H]1O[C@H]([C@H](O)CO)[C@H](O)[C@H]1O` gave an inhibitory constant (Ki) of over 500 µM.

Consider `C=CCCCCCCCCCO[C@H]1C(O)O[C@H](CO)[C@@H](O)[C@@H]1O` (stereo partly drawn), for which the affinity, expressed as Ki, was 2 µM.

Turning to `C=CCCCCCCCCCO[C@H](CO)[C@H]1OC(O)[C@H](O)[C@H]1O` (stereo partly drawn), the affinity corresponds to a Ki of 1500 µM.

Consider `C=CCCCCCCCCCO[C@H]1[C@H](O)[C@@H](CO)OC(O)[C@@H]1O` (stereo partly drawn), for which affinity was put at a Ki of 26 µM.

With `C=CCCCCCCCCCO[C@H]1O[C@H]([C@H](O)CO)[C@H](O)[C@H]1O`, the Ki was over 500 µM.

With `C=CCCCCCCCCCO[C@H]1O[C@H](CO)[C@@H](O)[C@H](O)[C@H]1O`, the Ki was over 500 µM.

On to `C=CCCCCCCCCCO[C@@H]1O[C@H](CO)[C@@H](O)[C@H](O)[C@H]1O`, for which the Ki is over 500 µM.

The target of a further test is T2, Solute carrier family 2, facilitated glucose transporter member 1 (Homo sapiens) (UniProt P11166).
T2 sequence (whole entry): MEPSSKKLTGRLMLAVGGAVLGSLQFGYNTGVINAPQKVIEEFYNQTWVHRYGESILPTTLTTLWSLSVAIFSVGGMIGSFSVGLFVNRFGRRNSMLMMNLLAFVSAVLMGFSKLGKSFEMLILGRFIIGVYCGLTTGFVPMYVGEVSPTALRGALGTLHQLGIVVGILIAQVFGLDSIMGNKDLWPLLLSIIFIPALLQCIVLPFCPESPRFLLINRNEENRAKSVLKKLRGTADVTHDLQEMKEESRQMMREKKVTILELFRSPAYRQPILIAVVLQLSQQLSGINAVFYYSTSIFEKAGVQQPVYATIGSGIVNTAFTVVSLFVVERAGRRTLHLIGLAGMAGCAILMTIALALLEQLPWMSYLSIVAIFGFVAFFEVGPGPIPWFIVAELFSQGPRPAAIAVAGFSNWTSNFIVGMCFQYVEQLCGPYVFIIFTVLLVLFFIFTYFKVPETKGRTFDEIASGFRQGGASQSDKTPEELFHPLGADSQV
Kind of test: (§1) Inhibition of [3H]glucose uptake at mammalian GLUT1 expressed in Xenopus laevis oocytes. It is filed as cell-based. As to conditions: Oocyte.
As for `C=CCCCCCCCCCO[C@@H]1O[C@H]([C@H](O)CO)[C@H](O)[C@H]1O`, the outcome was inactive.

`C=CCCCCCCCCCO[C@H]1C(O)O[C@H](CO)[C@@H](O)[C@@H]1O` (stereo partly drawn): the result was inactive.

For `C=CCCCCCCCCCO[C@H](CO)[C@H]1OC(O)[C@H](O)[C@H]1O` (stereo partly drawn), the result was inactive.

Regarding `C=CCCCCCCCCCO[C@H]1O[C@H]([C@H](O)CO)[C@H](O)[C@H]1O`, the outcome was inactive.

Regarding `C=CCCCCCCCCCO[C@H]1O[C@H](CO)[C@@H](O)[C@H](O)[C@H]1O`, the outcome was inactive.

The target of another test is T3, Solute carrier family 2, facilitated glucose transporter member 1 (Homo sapiens, UniProt P11166).
T3 sequence (P11166 whole entry): T2 sequence (whole entry)
The description is as §1. The format is cell-based, Oocyte.
Conditions: not given
With `C=CCCCCCCCCCOC[C@H]1OC(O)[C@H](O)[C@@H](O)[C@@H]1O` (stereo partly drawn), affinity was put at a Ki of 400 µM.

The molecule `C=CCCCCCCCCCO[C@H]1[C@H](O)[C@@H](CO)OC(O)[C@@H]1O` (stereo partly drawn) yielded an inhibition constant Ki of 98 µM.

Regarding `C=CCCCCCCCCCO[C@@H]1O[C@H](CO)[C@@H](O)[C@H](O)[C@H]1O`, the inhibition constant Ki was over 500 µM.

The test system of the next test is Plasmodium falciparum. Kind of test: Antiplasmodial activity against Plasmodium falciparum 3D7. The format is functional, organism-based.
Conditions: not given
By IC50 is commonly meant the concentration at which inhibition is half-maximal. Take `C=CCCCCCCCCCO[C@H]1C(O)O[C@H](CO)[C@@H](O)[C@@H]1O` (stereo partly drawn): it took 8.2 µM to reach half-maximal inhibition (IC50).

Take `C=CCCCCCCCCCO[C@H]1[C@H](O)[C@@H](CO)OC(O)[C@@H]1O` (stereo partly drawn): the 50% inhibitory concentration (IC50) came to 123 µM.

The values above are taken from ChEMBL document CHEMBL1140671, “Interaction of O-(undec-10-en)-yl-D-glucose derivatives with the Plasmodium falciparum hexose transporter (PfHT)” (Bioorg Med Chem Lett, 2007).
